Key:
[1] = test system: CDK8 (TCF/LEF luciferase reporter in HCT116 cells); assay: Cell based TCF/LEF reporter assay (HCT116+TCF/LEF luciferase); details: Homo sapiens, HCT-116, 24 h
Method in brief: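 HCT116 cells stably carrying a TCF/LEF-luciferase reporter (endogenous mutant β-catenin), seeded overnight, then exposed to serial compound dilutions for 24 h at 37 °C. Luminescence normalized to CellTiter-Fluor viability signal. % inhibition relative to DMSO and 10 uM CCT251545 controls, with IC50 from nonlinear regression.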

[2] = test system: CDK8 (phosphorylation of STAT1 at serine 727 in A549 cells); assay: Cell based Phospho-STAT1 assay (IFNγ-stimulated A549 cells, AlphaLISA); details: Homo sapiens, A549, A549 cells, phospho-STAT1 after IFNγ stimulation
Method in brief: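 A549 cells given serial compound dilutions for 1 h at 37 °C, then stimulated with IFNγ at 10 ng/mL final for 30 min. Lysate STAT1 Ser727 phosphorylation measured by AlphaLISA; % inhibition vs stimulated/unstimulated DMSO controls, IC50 by nonlinear regression.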

Structure (SMILES)	IC50 [1] [nM]	IC50 [2] [nM]
COc1ccc(-c2cnn3ccnc(C4=CCC(C(N)=O)CC4)c23)cn1 (stereo not shown) [Compound P-0155, 4-(3-(6-methoxypyridin-3-yl)pyrazolo[1,5-a]pyrazin-4-yl)cyclohex-3-ene-1-carboxamide]	100 to 1000	100 to 1000
NC(=O)C1CCC(c2cccn3ncc(-c4ccc(-c5cnn(C(F)F)c5)cc4)c23)CC1 (stereo not shown) [Compound P-0316, 4-(3-(4-(1-(difluoromethyl)-1H-pyrazol-4-yl)phenyl)pyrazolo[1,5-a]pyridin-4-yl)cyclohexane-1-carboxamide]	0.1 to 100	0.1 to 100
CC(C)(O)Cn1ncc2cc(-c3cnn4ccnc(C5=CCC(C#N)CC5)c34)ccc21 (stereo not shown) [Compound P-0111, 4-(3-(1-(2-hydroxy-2-methylpropyl)-1H-indazol-5-yl)pyrazolo[1,5-a]pyrazin-4-yl)cyclohex-3-ene-1-carbonitrile]	0.1 to 100	0.1 to 100
Cn1cc(C#Cc2cnc3cccc(N4CCC5(CC4)C(=O)Nc4ccccc45)n23)cn1 [Compound P-0437, 1′-(3-((1-methyl-1H-pyrazol-4-yl)ethynyl)imidazo[1,2-a]pyridin-5-yl)spiro[indoline-3,4′-piperidin]-2-one]	0.1 to 100	0.1 to 100
Cn1cc(-c2ccc(-c3cnn4ccnc(C5CCC(C#N)CC5)c34)cc2)cn1 (stereo not shown) [Compound P-0059, (1s,4s)-4-(3-(4-(1-methyl-1H-pyrazol-4-yl)phenyl)pyrazolo[1,5-a]pyrazin-4-yl)cyclohexane-1-carbonitrile]	0.1 to 100	0.1 to 100
Cc1ccc2cc(-c3cnn4cccc(C#CC(C)(C)O)c34)ccc2n1 [Compound P-0281, 2-methyl-4-(3-(2-methylquinolin-6-yl)pyrazolo[1,5-a]pyridin-4-yl)but-3-yn-2-ol]	100 to 1000	100 to 1000
Cn1cc(-c2ccc(-c3cnn4cccc(C5=CCC(C(N)=O)CC5)c34)cc2)cn1 (stereo not shown) [Compound P-0443, 4-(3-(4-(1-methyl-1H-pyrazol-4-yl)phenyl)pyrazolo[1,5-a]pyridin-4-yl)cyclohex-3-ene-1-carboxamide]	0.1 to 100	0.1 to 100
CC(C)(C#Cc1cccn2ncc(-c3ccc(-c4cnn(CC5CC5)c4)cc3)c12)C(N)=O [Compound P-0463, 4-(3-(4-(1-(cyclopropylmethyl)-1H-pyrazol-4-yl)phenyl)pyrazolo[1,5-a]pyridin-4-yl)-2,2-dimethylbut-3-ynamide]	0.1 to 100	0.1 to 100
Cn1cc(-c2ccc(-c3cnn4cccc(C5=CCC(C(=O)N6CCC6)CC5)c34)cc2)cn1 (stereo not shown) [Compound P-0333, azetidin-1-yl-[4-[3-[4-(1-methylpyrazol-4-yl)phenyl]pyrazolo[1,5-a]pyridin-4-yl]cyclohex-3-en-1-yl]methanone]	100 to 1000	100 to 1000
Cn1cc(-c2ccc(-c3cnn4cccc(N5C6CCC5CC(C#N)C6)c34)cc2)cn1 (stereo not shown) [Compound P-0248, 8-(3-(4-(1-methyl-1H-pyrazol-4-yl)phenyl)pyrazolo[1,5-a]pyridin-4-yl)-8-azabicyclo[3.2.1]octane-3-carbonitrile]	0.1 to 100	0.1 to 100
N#CC1CC=C(c2nccn3ncc(-c4cnn(C5CC5)c4)c23)CC1 (stereo not shown) [Compound P-0076, 4-(3-(1-cyclopropyl-1H-pyrazol-4-yl)pyrazolo[1,5-a]pyrazin-4-yl)cyclohex-3-ene-1-carbonitrile]	100 to 1000	100 to 1000
N#CC1CC=C(c2cccn3ncc(-c4ccc(Cl)cc4)c23)CC1 (stereo not shown) [Compound P-0188, 4-(3-(4-chlorophenyl)pyrazolo[1,5-a]pyridin-4-yl)cyclohex-3-ene-1-carbonitrile]	0.1 to 100	0.1 to 100
CC(C)(C#Cc1nccn2ncc(-c3ccc(N4CCOCC4)c(F)c3)c12)C(N)=O [Compound P-0099, 4-(3-(3-fluoro-4-morpholinophenyl)pyrazolo[1,5-a]pyrazin-4-yl)-2,2-dimethylbut-3-ynamide]	100 to 1000	0.1 to 100
N#CC1CC=C(c2nccn3ncc(-c4ccc(C(N)=O)c(F)c4)c23)CC1 (stereo not shown) [Compound P-0105, 4-(4-(4-cyanocyclohex-1-en-1-yl)pyrazolo[1,5-a]pyrazin-3-yl)-2-fluorobenzamide]	100 to 1000	0.1 to 100
Cc1ccc2cc(-c3cnn4ccnc(C5CCC(C#N)CC5)c34)ccc2n1 (stereo not shown) [Compound P-0187, 4-(3-(2-methylquinolin-6-yl)pyrazolo[1,5-a]pyrazin-4-yl)cyclohexane-1-carbonitrile]	0.1 to 100	0.1 to 100
CS(=O)(=O)Nc1ccc(-c2cnn3ccnc(C4=CCC(C#N)CC4)c23)cc1 (stereo not shown) [Compound P-0045, N-(4-(4-(4-cyanocyclohex-1-en-1-yl)pyrazolo[1,5-a]pyrazin-3-yl)phenyl)methanesulfonamide]	0.1 to 100	100 to 1000

Structure (SMILES)	IC50 [1] [nM]	IC50 [2] [nM]
CC(C)(O)C#Cc1cccn2ncc(-c3ccc(-c4cnoc4)cc3)c12 [Compound P-0228, 4-(3-(4-(isoxazol-4-yl)phenyl)pyrazolo[1,5-a]pyridin-4-yl)-2-methylbut-3-yn-2-ol]	1000 to 10000	1000 to 10000
Cc1ccc2cc(-c3cnc4[nH]ccc4c3C3=CCC(C#N)CC3)ccc2n1 (stereo not shown) [Compound P-0202, 4-(5-(2-methylquinolin-6-yl)-1H-pyrrolo[2,3-b]pyridin-4-yl)cyclohex-3-ene-1-carbonitrile]	0.1 to 100	0.1 to 100
CC(C)(O)C#Cc1cccn2ncc(-c3ccc4cc(C(N)=O)ccc4c3)c12 [Compound P-0191, 6-(4-(3-hydroxy-3-methylbut-1-yn-1-yl)pyrazolo[1,5-a]pyridin-3-yl)-2-naphthamide]	100 to 1000	0.1 to 100
CCCS(=O)(=O)Nc1ccc2cc(-c3cnn4ccnc(C5=CCC(C#N)CC5)c34)ccc2c1 (stereo not shown) [Compound P-0060, N-(6-(4-(4-cyanocyclohex-1-en-1-yl)pyrazolo[1,5-a]pyrazin-3-yl)naphthalen-2-yl)propane-1-sulfonamide]	0.1 to 100	0.1 to 100
CCCS(=O)(=O)Nc1ccc2cc(-c3cnn4cccc(C#CC(C)(C)C(N)=O)c34)ccc2c1 [Compound P-0065, 2,2-dimethyl-4-(3-(6-(propylsulfonamido)naphthalen-2-yl)pyrazolo[1,5-a]pyridin-4-yl)but-2-ynamide]	100 to 1000	0.1 to 100
CC(C)(C)C(=O)Nc1ccc(-c2cnn3cccc(N4CCC(C#N)CC4)c23)cc1 [Compound P-0254, N-(4-(4-(4-cyanopiperidin-1-yl)pyrazolo[1,5-a]pyridin-3-yl)phenyl)pivalamide]	100 to 1000	100 to 1000
CC(C)(C#Cc1cccn2ncc(-c3ccc(-c4cnn(CC(N)=O)c4)cc3)c12)C(N)=O [Compound P-0462, 4-(3-(4-(1-(2-amino-2-oxoethyl)-1H-pyrazol-4-yl)phenyl)pyrazolo[1,5-a]pyridin-4-yl)-2,2-dimethylbut-3-ynamide]	0.1 to 100	0.1 to 100
NC(=O)C1CC=C(c2nccn3ncc(-c4ccc(OCCN5CCOCC5)cc4)c23)CC1 (stereo not shown) [Compound P-0129, 4-(3-(4-(2-morpholino-ethoxy)phenyl)pyrazolo[1,5-a]pyrazin-4-yl)cyclohex-3-ene-1-carboxamide]	0.1 to 100	0.1 to 100
Cc1c(-c2ccc(-c3cnn4cccc(C#CC(C)(C)O)c34)cc2)cnn1C [Compound P-0230, 4-(3-(4-(1,5-dimethyl-1H-pyrazol-4-yl)phenyl)pyrazolo[1,5-a]pyridin-4-yl)-2-methylbut-3-yn-2-ol]	0.1 to 100	0.1 to 100
N#CC1CC=C(c2c(-c3ccc4c(c3)C(=O)NC4)cnc3[nH]ccc23)CC1 (stereo not shown) [Compound P-0207, 4-(5-(3-oxoisoindolin-5-yl)-1H-pyrrolo[2,3-b]pyridin-4-yl)cyclohex-3-ene-1-carbonitrile]	100 to 1000	1000 to 10000
CC(C)(C#N)Cn1cc(-c2ccc(-c3cnn4ccnc(C5=CCC(C#N)CC5)c34)cc2)cn1 (stereo not shown) [Compound P-0048, 4-(3-(4-(1-(2-cyano-2-methylpropyl)-1H-pyrazol-4-yl)phenyl)pyrazolo[1,5-a]pyrazin-4-yl)cyclohex-3-ene-1-carbonitrile]	0.1 to 100	0.1 to 100
N#CC1CC=C(c2nccn3ncc(-c4ccc5c(cnn5CC(F)(F)F)c4)c23)CC1 (stereo not shown) [Compound P-0063, 4-(3-(1-(2,2,2-trifluoroethyl)-1H-indazol-5-yl)pyrazolo[1,5-a]pyrazin-4-yl)cyclohex-3-ene-1-carbonitrile]	0.1 to 100	0.1 to 100
Cc1ccncc1-c1ccc(-c2cnn3cccc(C#CC(C)(C)O)c23)cc1 [Compound P-0233, 2-methyl-4-(3-(4-(4-methylpyridin-3-yl)phenyl)pyrazolo[1,5-a]pyridin-4-yl)but-3-yl-2-ol]	100 to 1000	1000 to 10000
Cn1cc(-c2ccc(-c3cnn4cccc(C#CC(C)(C)NS(C)(=O)=O)c34)cc2)cn1 [Compound P-0308, N-(2-methyl-4-(3-(4-(1-methyl-1H-pyrazol-4-yl)phenyl)pyrazolo[1,5-a]pyridin-4-yl)but-3-yn-2-yl)methanesulfonamide]	100 to 1000	100 to 1000
N#CC1CC=C(c2c(-c3ccc4c(c3)OCC(=O)N4)cnc3[nH]ccc23)CC1 (stereo not shown) [Compound P-0205, 4-(5-(3-oxo-3,4-dihydro-2H-benzo[b][1,4]oxazin-7-yl)-1H-pyrrolo[2,3-b]pyridin-4-yl)cyclohex-3-ene-1-carbonitrile]	0.1 to 100	100 to 1000
Cn1cc(-c2ccc(-c3cnc4cccc(C5=CCC(C(N)=O)CC5)n34)cc2)cn1 (stereo not shown) [Compound P-0416, 4-(3-(4-(1-methyl-1H-pyrazol-4-yl)phenyl)imidazo[1,2-a]pyridin-5-yl)cyclohex-3-ene-1-carboxamide]	100 to 1000	100 to 1000

— patent publication US10703757B2, “Compounds and methods for CDK8 modulation and indications therefor” (Plexxikon Inc., priority 2016, dated 2020)
